The values below are quoted from earlier work in patent publication US8975284B2, “Co-solvent compositions and methods for improved delivery of dantrolene therapeutic agents” (US WorldMeds LLC, priority 2007, dated 2015).

One may read the pKa as the negative logarithm of the acid dissociation constant.

Experiment in data set [1]: not given
This is another data set of the same source.

Experiment in data set [2]: not given
The source holds these as a separate data set.

Where two headings read alike, the source gives them in different places.

With `O=C1CN(N=Cc2ccc(-c3ccc([N+](=O)[O-])cc3)o2)C(=O)N1` [dantrolene, 1-[5-(p-nitrophenyl)furfurylideneamino]hydantoin], the “solubility of free acid form” value is “totally insoluble”. Further, the pKa result in data set [1] is listed as “about 7.5”. Turning to `CC(C)(C)O` [TBA, Tertiary Butyl Alcohol], the pKa in data set [2] is reported as 15.37 ± 0.29. For `O=C1CN(/N=C/c2ccc(-c3ccc([N+](=O)[O-])cc3)o2)C(=O)[N-]1.[Na+]` [Dantrolene sodium, 1-[[5-(p-nitrophenyl)furfurylidene]-amino]hydantoin sodium salt], in data set [1], the pKa is on record as 7.4.
